Results taken from patent publication US20230085307A1, “PYRIDAZINONE COMPOUND AND HERBICIDE” (NISSAN CHEMICAL CORPORATION, priority 2019, published 2023).

Tests used:
late watergrass = assay: Test Example 1: herbicidal activity, application before weed generation under submerged conditions (Table 16, symbol A); format: in vivo, late watergrass (Echinochloa oryzicola); conditions: amount of applied herbicide 320 g/ha
In short: (§1)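 Emulsion formulation, water-diluted to set dose, was put onto the flooded surface (4 cm depth, alluvial soil) the same day weeds were sown and 2.5-leaf rice transplanted. After 3 weeks at 25-30 °C under glass, each species was rated 0 (≤5% kill) to 5 (≥90% kill).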

wild oat [1] = assay: Test Example 5: herbicidal effect by foliage application, plastic box (Table 20, symbol I); format: in vivo, wild oat (Avena fatua); conditions: amount of applied herbicide 320 g/ha; foliage application after 14-day growth; evaluated three weeks after application
In short: (§2)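 Foliar spray test: emulsion formulation diluted in water to a set application rate, sprayed onto 14-day-old plants raised in diluvial soil at 25° C to 30° C under glass. Both herbicidal effect and crop effect rated visually three weeks later.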

lambsquarters [2] = assay: Test Example 5: herbicidal effect by foliage application, plastic box (Table 20, symbol O); format: in vivo, lambsquarters (Chenopodium album); conditions: amount of applied herbicide 320 g/ha; foliage application after 14-day growth; evaluated three weeks after application
In short: as §2

barnyard grass [3] = assay: Test Example 4: herbicidal effect by soil treatment (Table 19, symbol H); format: in vivo, barnyard grass (Echinochloa crus-galli); conditions: amount of applied herbicide 320 g/ha
In short: (§3)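 Step 1: sow seeds in sterilized diluvial soil, cover ~1.5 cm. Step 2: spray diluted emulsion onto soil surface at predetermined rate. Step 3: greenhouse, 25–30° C, three weeks. Step 4: grade effect on each plant by earlier criteria.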

Japanese bulrush = assay: Test Example 1: herbicidal activity, application before weed generation under submerged conditions (Table 16, symbol B); format: in vivo, Japanese bulrush (Schoenoplectus juncoides); conditions: amount of applied herbicide 320 g/ha
In short: as §1

blackgrass [4] = assay: Test Example 5: herbicidal effect by foliage application, plastic box (Table 20, symbol J); format: in vivo, blackgrass (Alopecurus myosuroides); conditions: amount of applied herbicide 320 g/ha; foliage application after 14-day growth; evaluated three weeks after application
In short: as §2

oval-leafed pondweed = assay: Test Example 1: herbicidal activity, application before weed generation under submerged conditions (Table 16, symbol C); format: in vivo, oval-leafed pondweed (Monochoria vaginalis); conditions: amount of applied herbicide 320 g/ha
In short: as §1

windgrass [5] = assay: Test Example 4: herbicidal effect by soil treatment (Table 19, symbol L); format: in vivo, windgrass (Apera spica-venti); conditions: amount of applied herbicide 320 g/ha
In short: as §3

green foxtail [6] = assay: Test Example 4: herbicidal effect by soil treatment (Table 19, symbol G); format: in vivo, green foxtail (Setaria viridis); conditions: amount of applied herbicide 320 g/ha
In short: as §3

blackgrass [7] = assay: Test Example 4: herbicidal effect by soil treatment (Table 19, symbol J); format: in vivo, blackgrass (Alopecurus myosuroides); conditions: amount of applied herbicide 320 g/ha
In short: as §3

persian speedwell [8] = assay: Test Example 4: herbicidal effect by soil treatment (Table 19, symbol R); format: in vivo, Persian speedwell (Veronica persica); conditions: amount of applied herbicide 320 g/ha
In short: as §3

lambsquarters [9] = assay: Test Example 4: herbicidal effect by soil treatment (Table 19, symbol O); format: in vivo, lambsquarters (Chenopodium album); conditions: amount of applied herbicide 320 g/ha
In short: as §3

southern crabgrass [10] = assay: Test Example 4: herbicidal effect by soil treatment (Table 19, symbol F); format: in vivo, southern crabgrass (Digitaria ciliaris); conditions: amount of applied herbicide 320 g/ha
In short: as §3

southern crabgrass [11] = assay: Test Example 5: herbicidal effect by foliage application, plastic box (Table 20, symbol F); format: in vivo, southern crabgrass (Digitaria ciliaris); conditions: amount of applied herbicide 320 g/ha; foliage application after 14-day growth; evaluated three weeks after application
In short: as §2

Italian ryegrass [12] = assay: Test Example 4: herbicidal effect by soil treatment (Table 19, symbol K); format: in vivo, Italian ryegrass (Lolium multiflorum); conditions: amount of applied herbicide 320 g/ha
In short: as §3

redroot pigweed [13] = assay: Test Example 5: herbicidal effect by foliage application, plastic box (Table 20, symbol N); format: in vivo, redroot pigweed (Amaranthus retroflexus); conditions: amount of applied herbicide 320 g/ha; foliage application after 14-day growth; evaluated three weeks after application
In short: as §2

wild oat [14] = assay: Test Example 4: herbicidal effect by soil treatment (Table 19, symbol I); format: in vivo, wild oat (Avena fatua); conditions: amount of applied herbicide 320 g/ha
In short: as §3

Chinese sprangletop = assay: Test Example 3: herbicidal effect by foliage application, Wagner pot (Table 18, symbol D); format: in vivo, chinese sprangletop (Leptochloa chinensis); conditions: 320 g/ha
In short: (§4)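 Plants were sown in alluvial soil held under 0.1–0.5 cm standing water and grown 14 days in a greenhouse at 25–30 °C. An emulsifiable formulation, water-diluted to the set dose, was then sprayed onto the foliage, and effects were scored three weeks later using previously defined criteria.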

rice flat sedge = assay: Test Example 3: herbicidal effect by foliage application, Wagner pot (Table 18, symbol E); format: in vivo, rice flat sedge (Cyperus iria); conditions: 320 g/ha
In short: as §4

green foxtail [15] = assay: Test Example 5: herbicidal effect by foliage application, plastic box (Table 20, symbol G); format: in vivo, green foxtail (Setaria viridis); conditions: amount of applied herbicide 320 g/ha; foliage application after 14-day growth; evaluated three weeks after application
In short: as §2

barnyard grass [16] = assay: Test Example 5: herbicidal effect by foliage application, plastic box (Table 20, symbol H); format: in vivo, barnyard grass (Echinochloa crus-galli); conditions: amount of applied herbicide 320 g/ha; foliage application after 14-day growth; evaluated three weeks after application
In short: as §2

redroot pigweed [17] = assay: Test Example 4: herbicidal effect by soil treatment (Table 19, symbol N); format: in vivo, redroot pigweed (Amaranthus retroflexus); conditions: amount of applied herbicide 320 g/ha
In short: as §3

chickweed [18] = assay: Test Example 4: herbicidal effect by soil treatment (Table 19, symbol P); format: in vivo, common chickweed (Stellaria media); conditions: amount of applied herbicide 320 g/ha
In short: as §3

velvetleaf [19] = assay: Test Example 5: herbicidal effect by foliage application, plastic box (Table 20, symbol M); format: in vivo, velvetleaf (Abutilon theophrasti); conditions: amount of applied herbicide 320 g/ha; foliage application after 14-day growth; evaluated three weeks after application
In short: as §2

Italian ryegrass [20] = assay: Test Example 5: herbicidal effect by foliage application, plastic box (Table 20, symbol K); format: in vivo, Italian ryegrass (Lolium multiflorum); conditions: amount of applied herbicide 320 g/ha; foliage application after 14-day growth; evaluated three weeks after application
In short: as §2

persian speedwell [21] = assay: Test Example 5: herbicidal effect by foliage application, plastic box (Table 20, symbol R); format: in vivo, Persian speedwell (Veronica persica); conditions: amount of applied herbicide 320 g/ha; foliage application after 14-day growth; evaluated three weeks after application
In short: as §2

velvetleaf [22] = assay: Test Example 4: herbicidal effect by soil treatment (Table 19, symbol M); format: in vivo, velvetleaf (Abutilon theophrasti); conditions: amount of applied herbicide 320 g/ha
In short: as §3

barnyard grass [23] = assay: Test Example 3: herbicidal effect by foliage application, Wagner pot (Table 18, symbol H); format: in vivo, barnyard grass (Echinochloa crus-galli); conditions: 320 g/ha
In short: as §4

windgrass [24] = assay: Test Example 5: herbicidal effect by foliage application, plastic box (Table 20, symbol L); format: in vivo, windgrass (Apera spica-venti); conditions: amount of applied herbicide 320 g/ha; foliage application after 14-day growth; evaluated three weeks after application
In short: as §2

chickweed [25] = assay: Test Example 5: herbicidal effect by foliage application, plastic box (Table 20, symbol P); format: in vivo, common chickweed (Stellaria media); conditions: amount of applied herbicide 320 g/ha; foliage application after 14-day growth; evaluated three weeks after application
In short: as §2

SMILES | Herbicidal effect, A: late watergrass (late watergrass) | Herbicidal effect by foliage application, I: wild oat (wild oat [1]) | Herbicidal effect by foliage application, O: lambsquarters (lambsquarters [2]) | H: barnyard grass, herbicidal effect grade (barnyard grass [3]) | Herbicidal effect, B: Japanese bulrush (Japanese bulrush) | Herbicidal effect by foliage application, J: blackgrass (blackgrass [4]) | Herbicidal effect, C: oval-leafed pondweed (oval-leafed pondweed) | L: windgrass, herbicidal effect grade (windgrass [5]) | G: green foxtail, herbicidal effect grade (green foxtail [6]) | J: blackgrass, herbicidal effect grade (blackgrass [7]) | R: persian speedwell, herbicidal effect grade (persian speedwell [8]) | O: lambsquarters, herbicidal effect grade (lambsquarters [9]) | F: southern crabgrass, herbicidal effect grade (southern crabgrass [10]) | Herbicidal effect by foliage application, F: southern crabgrass (southern crabgrass [11]) | K: Italian ryegrass, herbicidal effect grade (Italian ryegrass [12]) | Herbicidal effect by foliage application, N: redroot pigweed (redroot pigweed [13]) | I: wild oat, herbicidal effect grade (wild oat [14]) | herbicidal effect on Chinese sprangletop (D) (Chinese sprangletop) | herbicidal effect on rice flat sedge (E) (rice flat sedge) | Herbicidal effect by foliage application, G: green foxtail (green foxtail [15]) | other results
COCc1ccc(-c2sc3cc(F)c(F)cc3c2-c2c(O)c(C)nn(C)c2=O)cc1 [5-009] | 2 (Herbicidal rate of 20% or more and less than 40%) | 0 (Herbicidal rate of 5% or less (almost no effect)) | 3 (Herbicidal rate of 40% or more and less than 70%) | 0 (Herbicidal rate of 5% or less (almost no effect)) | 0 (Herbicidal rate of 5% or less (almost no effect)) | 0 (Herbicidal rate of 5% or less (almost no effect)) | 0 (Herbicidal rate of 5% or less (almost no effect)) | 0 (Herbicidal rate of 5% or less (almost no effect)) | 2 (Herbicidal rate of 20% or more and less than 40%) | 0 (Herbicidal rate of 5% or less (almost no effect)) | 5 (Herbicidal rate of 90% or more (almost completely withered)) | 4 (Herbicidal rate of 70% or more and less than 90%) | 0 (Herbicidal rate of 5% or less (almost no effect)) | 2 (Herbicidal rate of 20% or more and less than 40%) | 0 (Herbicidal rate of 5% or less (almost no effect)) | 5 (Herbicidal rate of 90% or more (almost completely withered)) | 0 (Herbicidal rate of 5% or less (almost no effect)) | 3 (Herbicidal rate of 40% or more and less than 70%) | 3 (Herbicidal rate of 40% or more and less than 70%) | 3 (Herbicidal rate of 40% or more and less than 70%) | Herbicidal effect by foliage application, H: barnyard grass (barnyard grass [16]): 3 (Herbicidal rate of 40% or more and less than 70%); N: redroot pigweed, herbicidal effect grade (redroot pigweed [17]): 4 (Herbicidal rate of 70% or more and less than 90%); P: chickweed, herbicidal effect grade (chickweed [18]): 5 (Herbicidal rate of 90% or more (almost completely withered)); Herbicidal effect by foliage application, M: velvetleaf (velvetleaf [19]): 4 (Herbicidal rate of 70% or more and less than 90%); Herbicidal effect by foliage application, K: Italian ryegrass (Italian ryegrass [20]): 3 (Herbicidal rate of 40% or more and less than 70%); Herbicidal effect by foliage application, R: persian speedwell (persian speedwell [21]): 5 (Herbicidal rate of 90% or more (almost completely withered)); M: velvetleaf, herbicidal effect grade (velvetleaf [22]): 2 (Herbicidal rate of 20% or more and less than 40%); herbicidal effect on barnyard grass (H) (barnyard grass [23]): 4 (Herbicidal rate of 70% or more and less than 90%); Herbicidal effect by foliage application, L: windgrass (windgrass [24]): 0 (Herbicidal rate of 5% or less (almost no effect)); Herbicidal effect by foliage application, P: chickweed (chickweed [25]): 5 (Herbicidal rate of 90% or more (almost completely withered))
CCOc1ccccc1-c1sc2cc(F)c(F)cc2c1-c1c(O)c(C)nn(C)c1=O [5-016] | 3 (Herbicidal rate of 40% or more and less than 70%) | 0 (Herbicidal rate of 5% or less (almost no effect)) | 4 (Herbicidal rate of 70% or more and less than 90%) | 5 (Herbicidal rate of 90% or more (almost completely withered)) | 1 (Herbicidal rate of 5% or more and less than 20%) | 4 (Herbicidal rate of 70% or more and less than 90%) | 0 (Herbicidal rate of 5% or less (almost no effect)) | 5 (Herbicidal rate of 90% or more (almost completely withered)) | 5 (Herbicidal rate of 90% or more (almost completely withered)) | 4 (Herbicidal rate of 70% or more and less than 90%) | 5 (Herbicidal rate of 90% or more (almost completely withered)) | 5 (Herbicidal rate of 90% or more (almost completely withered)) | 4 (Herbicidal rate of 70% or more and less than 90%) | 4 (Herbicidal rate of 70% or more and less than 90%) | 3 (Herbicidal rate of 40% or more and less than 70%) | 5 (Herbicidal rate of 90% or more (almost completely withered)) | 0 (Herbicidal rate of 5% or less (almost no effect)) | 2 (Herbicidal rate of 20% or more and less than 40%) | 5 (Herbicidal rate of 90% or more (almost completely withered)) | 5 (Herbicidal rate of 90% or more (almost completely withered)) | Herbicidal effect by foliage application, H: barnyard grass (barnyard grass [16]): 5 (Herbicidal rate of 90% or more (almost completely withered)); N: redroot pigweed, herbicidal effect grade (redroot pigweed [17]): 5 (Herbicidal rate of 90% or more (almost completely withered)); P: chickweed, herbicidal effect grade (chickweed [18]): 5 (Herbicidal rate of 90% or more (almost completely withered)); Herbicidal effect by foliage application, M: velvetleaf (velvetleaf [19]): 5 (Herbicidal rate of 90% or more (almost completely withered)); Herbicidal effect by foliage application, K: Italian ryegrass (Italian ryegrass [20]): 3 (Herbicidal rate of 40% or more and less than 70%); Herbicidal effect by foliage application, R: persian speedwell (persian speedwell [21]): 5 (Herbicidal rate of 90% or more (almost completely withered)); M: velvetleaf, herbicidal effect grade (velvetleaf [22]): 4 (Herbicidal rate of 70% or more and less than 90%); herbicidal effect on barnyard grass (H) (barnyard grass [23]): 5 (Herbicidal rate of 90% or more (almost completely withered)); Herbicidal effect by foliage application, L: windgrass (windgrass [24]): 5 (Herbicidal rate of 90% or more (almost completely withered)); Herbicidal effect by foliage application, P: chickweed (chickweed [25]): 5 (Herbicidal rate of 90% or more (almost completely withered))
